From the SangsterLogP compilation

test: from Caliendo, G., Novellino, E., Santagada, V., Silipo, C., & Vittoria, A. (1991). Structure-activity relationships in a set of antimicrobial. In QSAR, Rational Approaches to the Design of Bioactive …

SMILES	logP
O=C(Nc1ccc2nn(C3CCCCC3)nc2c1)c1ccc([N+](=O)[O-])cc1	4.57
O=C(Nc1ccc2nn(C3CCCCC3)nc2c1)C(Cl)Cl	3.87
O=C(Nc1ccc2nn(C3CCCCC3)nc2c1)c1ccc(Cl)c(Cl)c1	5.85
O=C(Nc1ccc2nn(C3CCCCC3)nc2c1)c1ccccc1	4.45

More lines, now with the values ahead:

logP	SMILES
2.53	Cn1nc2ccc(NC(=O)c3ccc([N+](=O)[O-])cc3)cc2n1
1.22	Cn1nc2ccc(NC(=O)CCl)cc2n1
2.44	Cn1nc2ccc(NC(=O)c3ccccc3)cc2n1
3.13	Cn1nc2ccc(NC(=O)c3ccc(Cl)cc3)cc2n1
2.38	COc1cc(C(=O)Nc2ccc3nn(C)nc3c2)cc(OC)c1OC

test: not given

SMILES	logP
COc1cc(C(=O)Nc2ccc3nn(C4CCCCC4)nc3c2)cc(OC)c1OC	4.45
